Experimental findings from publication doi:10.1101/2020.02.18.954917v1 (biorxiv, 2020) are described below.

What is called Kd is the concentration at which binding is half-saturated. A high value points to lower affinity.

Experiment [1] has as its target T1, Them1 StarD (Them1 START domain) (Homo sapiens, UniProt Q8WXI4).
T1 sequence (Q8WXI4 339-594 isoform Q8WXI4-2): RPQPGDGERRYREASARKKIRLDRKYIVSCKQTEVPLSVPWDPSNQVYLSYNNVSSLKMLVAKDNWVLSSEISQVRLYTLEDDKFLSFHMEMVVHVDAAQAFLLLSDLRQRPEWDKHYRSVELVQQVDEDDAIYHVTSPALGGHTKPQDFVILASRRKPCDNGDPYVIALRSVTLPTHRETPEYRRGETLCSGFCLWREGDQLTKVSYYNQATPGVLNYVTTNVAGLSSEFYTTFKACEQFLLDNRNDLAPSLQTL
Briefly: differential scanning fluorimetry, SYPRO orange. The class given is binding. The note with it: 10 μM protein, 50 μM ligand, 2% ethanol. (DSF heats the sample and reads unfolding from a dye or from intrinsic fluorescence.)

Experiment [2] has as its target T1, Them1 StarD (Them1 START domain). As to the kind of experiment: microscale thermophoresis, RED-tris-NTA labelled His-tagged StarD. The class given is binding.

In the case of `CCCCCCCC/C=C\CCCCCCCC(=O)OC[C@@H](O)COP(=O)([O-])OCC[N+](C)(C)C` [18:1 LPC], the Tm decrease in experiment [1] was ~ 5 °C.

In the case of `CCCCCCCCCCCCCC(=O)O` [myristic acid], in experiment [2], the Kd came out at 70.8 µM.

In experiment [2], `CCCCCCCCCCCCCCCC(=O)O` [palmitic acid] registered a Kd of 45.9 µM.

Compound `CCCCCCCCCCCCCCCCCC(=O)O` [stearic acid] came in with a Kd in experiment [2] of 9.5 µM.
